The target in one assay is Cytochrome P450 3A4 (Homo sapiens, UniProt P08684).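 Further: CYP3A4 tested as one member of a cytochrome P450 panel screen.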
The target of another assay is T1, Cytochrome P450 1A2 (Homo sapiens, UniProt P05177).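 Further: PubChem cytochrome P450 panel assay, CYP1A2 panel member.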
T1 sequence (P05177 whole entry): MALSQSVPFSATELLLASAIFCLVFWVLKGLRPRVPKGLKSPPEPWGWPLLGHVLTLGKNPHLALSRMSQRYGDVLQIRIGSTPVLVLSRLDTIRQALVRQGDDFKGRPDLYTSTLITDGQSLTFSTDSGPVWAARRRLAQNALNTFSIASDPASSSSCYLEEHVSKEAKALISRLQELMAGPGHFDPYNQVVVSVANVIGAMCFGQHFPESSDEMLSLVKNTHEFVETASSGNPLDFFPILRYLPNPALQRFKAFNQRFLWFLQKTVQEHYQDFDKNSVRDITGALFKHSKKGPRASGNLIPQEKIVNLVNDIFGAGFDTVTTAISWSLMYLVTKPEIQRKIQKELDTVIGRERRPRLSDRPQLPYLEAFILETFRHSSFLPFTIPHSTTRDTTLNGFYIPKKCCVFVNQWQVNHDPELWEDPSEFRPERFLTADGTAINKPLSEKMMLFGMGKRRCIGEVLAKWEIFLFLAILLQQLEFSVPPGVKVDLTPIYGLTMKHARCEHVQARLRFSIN

Assay [1] in a line: Luminescence Cell-Based Dose Retest to Confirm Inhibitors of Cancer Stem Cells. [Related pubchem assays (depositor defined):AID2717, AID2721]. Conditions: Homo sapiens. It counts as functional.
Assay [2] is described as follows: cytotoxicity toward NIH3T3 fibroblasts, dose response, counter-screen, cell-based, ATP luminescence, mouse fibroblasts (AID 2010).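 Further: cells exposed to compound for about 90 hours before reading.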 It counts as functional. For orientation: The purpose of a counterscreen is to sort out artefacts and off-target activity.
The nature of assay [3]: inhibitors of intracellular T. cruzi replication, confirmation, NIH3T3 host cells, beta-gal luminescence (AID 2044).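 Further: intracellular parasites grown in NIH/3T3 mouse fibroblasts as host cells; luminescent beta-galactosidase reporter signal from transgenic T. cruzi replicating inside host cells; inhibitors lower the luminescence signal.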 It counts as functional, cell-based.
In the next assay the test system is Streptococcus. The experiment in a line: Group A Streptococcus viability loss, dose response, counter-screen for streptokinase expression inhibitor project, luminescence, BacTiterGlo (AID 1915).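 Further: potency for reduction of bacterial viability or growth.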 The assay is classed as functional, organism-based.
Assay [4] deals with Streptococcus sp. 'group A'. The experiment in a line: growth inhibition of control SK(-) GAS strain, dose response, counter-screen for streptokinase expression inhibitor project, luminescence, kanamycin, BacTiterGlo, confirmation (AID 1900). It counts as functional, organism-based.
The target in assay [5] is T2, Rac GTPase-activating protein 1 (Homo sapiens, UniProt Q9H0H5).
T2 sequence (Q9H0H5 whole entry): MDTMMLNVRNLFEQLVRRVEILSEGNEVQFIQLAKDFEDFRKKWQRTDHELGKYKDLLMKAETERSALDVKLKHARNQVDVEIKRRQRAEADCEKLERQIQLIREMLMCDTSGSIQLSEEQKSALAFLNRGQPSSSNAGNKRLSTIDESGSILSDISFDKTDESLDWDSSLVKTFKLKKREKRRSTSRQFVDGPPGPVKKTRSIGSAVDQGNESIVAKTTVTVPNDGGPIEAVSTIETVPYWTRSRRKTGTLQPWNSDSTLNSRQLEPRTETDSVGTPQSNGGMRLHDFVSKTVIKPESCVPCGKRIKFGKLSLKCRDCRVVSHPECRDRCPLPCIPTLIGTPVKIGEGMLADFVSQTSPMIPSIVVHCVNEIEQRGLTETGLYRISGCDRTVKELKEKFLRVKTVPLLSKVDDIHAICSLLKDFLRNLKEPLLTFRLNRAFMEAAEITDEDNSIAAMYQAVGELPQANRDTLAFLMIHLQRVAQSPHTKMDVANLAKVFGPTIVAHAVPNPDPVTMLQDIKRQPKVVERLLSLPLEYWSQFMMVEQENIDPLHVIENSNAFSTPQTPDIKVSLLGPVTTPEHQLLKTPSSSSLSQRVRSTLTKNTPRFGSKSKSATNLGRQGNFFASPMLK
In words: MgcRacGAP GTPase-activating activity inhibitors, confirmation, biochemical, ADP Hunter fluorescence, primary and confirmatory (AID 624330). The assay is classed as functional.

Active and inactive are the calls of the source. Bounds are passed on as bounds.

The term AC50 denotes the concentration at which the activity in the assay is half-maximal. Broadly, the EC50 is the concentration that produces a half-maximal response. One may read the IC50 as the concentration at which inhibition is half-maximal.

Chain of Cytochrome P450 3A4 (P08684 whole entry): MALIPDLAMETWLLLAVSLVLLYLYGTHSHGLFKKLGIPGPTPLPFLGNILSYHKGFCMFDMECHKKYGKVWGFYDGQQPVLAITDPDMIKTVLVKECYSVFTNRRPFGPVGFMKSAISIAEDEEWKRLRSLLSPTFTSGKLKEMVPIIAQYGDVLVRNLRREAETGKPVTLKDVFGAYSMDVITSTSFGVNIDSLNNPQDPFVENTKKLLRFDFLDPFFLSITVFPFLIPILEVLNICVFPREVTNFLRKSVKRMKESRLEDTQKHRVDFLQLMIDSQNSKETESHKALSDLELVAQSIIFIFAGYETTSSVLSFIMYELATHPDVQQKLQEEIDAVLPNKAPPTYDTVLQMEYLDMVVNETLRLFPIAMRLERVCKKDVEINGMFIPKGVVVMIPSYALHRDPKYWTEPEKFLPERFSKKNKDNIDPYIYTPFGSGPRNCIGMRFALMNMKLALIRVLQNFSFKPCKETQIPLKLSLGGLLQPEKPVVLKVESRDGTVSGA

On to `COC(=O)c1ccc(N2CCN(c3ccccc3)CC2)c(NC(=O)C2CC2)c1`, for which the AC50 at Cytochrome P450 3A4 is 25.1 µM (inconclusive); on Cytochrome P450 1A2 it was 39.8 µM (inconclusive).

Turning to `CCC(C)c1ccccc1NC(=O)COC(=O)c1ccc2[nH]c3c(c2c1)CCCC3` (stereo not given), the AC50 in assay [1] is 2.09 µM (active).

In the case of `COc1ccc(NC(=O)N2CCCC3(CCN(C(=O)c4cnccn4)CC3)C2)cc1`, the AC50 at Cytochrome P450 3A4 was 15.8 µM (inconclusive).

On to `CCCN1C[C@H](CSC)C[C@H]2c3cccc4[nH]cc(c34)C[C@@H]21`, for which the AC50 at Cytochrome P450 1A2 was 3.16 µM (inconclusive).

On to `COc1ccc(-c2nc3cnc(OC)nc3n(CCC#N)c2=O)cc1`, for which the AC50 at Cytochrome P450 1A2 is 6.31 µM (inconclusive).

On to `O=C(Nc1ccccc1)N1CCCC2(CCNCC2)C1`, for which the AC50 at Cytochrome P450 3A4 was 20 µM (inconclusive); on Cytochrome P450 1A2 it was 25.1 µM (inconclusive).

In the case of `Cc1cccc(NC(=S)N(CCc2nc3cc(C)c(C)cc3[nH]2)Cc2cccnc2)c1`, the EC50 in assay [2] was > 60 µM (not active); in assay [3], 0.853 µM (active).

Consider `Cc1ccc(C)c(-n2c(Cc3cc(O)nc(O)n3)nnc2SCC(=O)NCC2CCCO2)c1` (stereo not given), for which, on Cytochrome P450 3A4, the AC50 is 31.6 µM (inconclusive).

For the molecule `Cc1ccc(Cl)cc1N1CCN(C(=O)c2ccc(CN3CCOCC3)cc2)CC1`, the figures for the EC50 in assay [2] and in assay [3] were 4.63 µM (active) and 2.13 µM (active), respectively.

Consider `N#CC1=C(N)NC(SCc2ccc(Br)cc2)=C(C#N)C12CCCCC2`, for which the figures for the EC50 in assay [2] and in assay [3] were > 60 µM (not active) and 3.29 µM (active), respectively.

For the molecule `CCn1c(NC(=O)c2cccc(Cn3cc(Cl)cn3)c2)nc2ccccc21`, the figures for the concentration for a half-maximal effect (EC50) (with Streptococcus; in assay [4]) were 18.6 µM (active) and 3.97 µM (active), respectively.

For `COc1cccc(-c2sc3ccc(OC)cc3c2C#CCC(C)O)c1` (stereo not given), the AC50 in assay [1] is 3.66 µM (active).

Regarding `COc1ccc(C(c2nnnn2Cc2ccccc2)N2CCN(c3nc4ccccc4s3)CC2)cc1` (stereo not given), the concentration giving a half-maximal response (EC50) in assay [2] is 8.63 µM (active); in assay [3] it was 3 µM (active).

Take `CCO/C(O)=C(/C#N)c1nc2ccccc2nc1N(CC(C)C)CC(C)C`: the AC50 in assay [1] was 6.07 µM (active).

For `CC(C)NCC(O)COC1C2CC3CC(C2)CC1C3` (stereo not given), the values for the EC50 in assay [2] and in assay [3] were > 60 µM (not active) and 1.14 µM (active), respectively.

Consider `Cn1c(=O)c2c(nc(Cl)n2Cc2ccc(Cl)c(Cl)c2)n(C)c1=O`, for which the AC50 at Cytochrome P450 3A4 was 15.8 µM (inconclusive).

`CN1CCN(c2ncc3nc(CCc4ccccc4)c(=O)n(C4CC4)c3n2)CC1`: the half-maximal activity concentration (AC50) on Cytochrome P450 3A4 was 15.8 µM (inconclusive); on Cytochrome P450 1A2, 12.6 µM (inconclusive).

As to `CCCCNC(=O)CCc1c(C)nc2c(c(C)nn2-c2ccccc2)c1C`, the EC50 in assay [2] is > 30 µM (not active); in assay [3], 1.39 µM (active).

For the molecule `CCOc1cc(-c2cc(-c3ccc(NC(C)=O)cc3)nc(N)c2C#N)ccc1O`, the results for the EC50 (in the assay on Streptococcus; in assay [4]) were 6.34 µM (active) and 0.651 µM (active), respectively.

Consider `Cc1nn(CC(=O)NC2C(=O)N3C(C(=O)O)=C(CSc4nnnn4C)CSC23)cc1Br` (stereo not given), for which the EC50 with Streptococcus is 0.316 µM (active); in assay [4], 0.072 µM (active).

Take `COc1cccc(Oc2nc(-c3ccncc3)nc3ccccc23)c1`: the results for the EC50 in assay [2] and in assay [3] were 7.86 µM (active) and 2.41 µM (active), respectively.

Turning to `Cn1cc(-c2nc3cnc(N4CCNCC4)nc3n(C)c2=O)c2ccccc21`, the AC50 on Cytochrome P450 1A2 is 15.8 µM (inconclusive).

Take `CN(CCc1ccccn1)Cc1ccc(Cl)c(Cl)c1`: the results for the EC50 in assay [2] and in assay [3] were > 60 µM (not active) and 0.244 µM (active), respectively.

As to `CN(C)C=O.O=[N+]([O-])c1cccc(COc2ncnc3cc([N+](=O)[O-])ccc23)c1`, the EC50 in assay [2] is > 60 µM (not active); in assay [3], 1.93 µM (active).

For the molecule `CC1=C(C(=O)Nc2cccnc2)C(c2cccnc2)n2nc(-c3cccs3)nc2N1` (stereo not given), the AC50 at Cytochrome P450 1A2 was 5.01 µM (inconclusive).

Consider `COc1ccc(-n2nc([N+](=O)[O-])c(NCCc3cccc(C)c3)[n+]2[O-])cc1`, for which the EC50 is > 60 µM (inconclusive) in assay [2] and 0.48 µM (active) in assay [3].

Consider `O=c1ccn(-c2ccccc2)[nH]1`, for which, in assay [5], the IC50 was 46.9 µM (active).

Turning to `O=[N+]([O-])c1ccc(Nc2nc(NC3CCCCC3)nc(N3CCCC3)n2)cc1`, the EC50 was > 60 µM (not active) in assay [2] and 1.75 µM (active) in assay [3].

For `COC(=O)c1ccc(-c2noc(CN(Cc3ccncc3)CC3CCCO3)n2)cc1` (stereo not given), the EC50 in assay [2] was > 60 µM (inconclusive); in assay [3] it was 2.46 µM (active).

As for `Cc1c(C)n(CCCN(C)C)c2ncnc(Nc3ccc(F)cc3)c12`, the EC50 in assay [2] was > 30 µM (not active); in assay [3] it was 0.9 µM (active).

Turning to `CN1CCN(c2ccnc(-c3ccc(N(C)C)cc3)n2)CC1`, on Cytochrome P450 3A4, the AC50 was 15.8 µM (inconclusive).

`Nc1nc2c(C(=O)NCc3cccs3)nnn2c2cccc(Cl)c12`: the AC50 on Cytochrome P450 1A2 is 1 µM (inconclusive).

As for `C#CCCCO/N=C1/C[C@@H](O)[C@@H](O)[C@@H]2[C@@H]3C(=O)N(CCC(=O)OCC)C(=O)[C@H]3CC[C@@H]12`, the AC50 on Cytochrome P450 3A4 was 3.16 µM (inconclusive).

Regarding `CCc1ccccc1NC(=O)CN(c1ccc(OC)cc1OC)S(=O)(=O)c1ccccc1[N+](=O)[O-]`, the EC50 in assay [2] is > 60 µM (not active); in assay [3] it was 2.25 µM (active).

Regarding `COc1ccc(CN(C)CC(=O)Nc2ccc(Cl)cc2C(F)(F)F)c(OC)c1`, the IC50 in assay [5] was 84.4 µM (active).

Turning to `Oc1ccc(Nc2ncnc3c2oc2ccccc23)cc1`, the IC50 in assay [5] was 15 µM (active).

With `Clc1ccc(COc2cccc(CNCc3ccncc3)c2)cc1`, the EC50 in assay [2] is > 60 µM (not active); in assay [3], 3.42 µM (active).

For the molecule `COc1ccc(-c2c[n+](CC(=O)N3c4ccccc4Sc4ccccc43)c3n2CCC3)cc1`, the EC50 was > 60 µM (not active) in assay [2] and 0.648 µM (active) in assay [3].

In the case of `COCCNC(=O)c1onc(CSc2ccc(Cl)cc2)c1C(=O)O`, the AC50 on Cytochrome P450 3A4 was 15.8 µM (inconclusive).

Turning to `Cc1c(C(=O)Nc2ccc3c(c2)OCCO3)sc2nc(-c3ccccc3)cn12`, the figures for the EC50 (in the assay on Streptococcus; in assay [4]) were 7.44 µM (active) and 3.01 µM (active), respectively.

With `CCc1ccc(-c2cc3c(=O)n(CC(=O)NCCN4CCCCC4C)nc(C)n3n2)cc1` (stereo not given), the AC50 in assay [1] was 2.45 µM (active).

Take `O=C(O)[C@@H]1CCN(Cc2oc(CO)cc(=O)c2O)C1`: the AC50 on Cytochrome P450 1A2 was 10 µM (inconclusive).

For the molecule `CC1=C(/C=C\C(=O)O)C(C)(C)CCC1`, the AC50 on Cytochrome P450 1A2 is 6.31 µM (inconclusive).

For `CCS(=O)(=O)N1CCC(C(=O)NCCCOC)CC1`, the AC50 on Cytochrome P450 3A4 was 0.0562 µM (inconclusive).

As for `Oc1ccc2ccc(Cl)cc2c1`, in assay [5], the IC50 was 41.9 µM (active).

As for `COc1cc(/C=N/Nc2nc(C)cc(C)n2)ccc1O`, in assay [5], the IC50 was 47.1 µM (active).

Regarding `COc1cc(C(=O)N/N=C/c2cn(Cc3ccccc3)c3ccccc23)ccc1O`, the IC50 in assay [5] was 90.1 µM (active).

Turning to `COc1ccc(/C=N/N(Cc2ccccc2)c2ccccc2)cc1O`, the AC50 in assay [1] was 6.09 µM (active).

With `COc1cc(/C=N/N=C2\CC3CCC2(C)C3(C)C)ccc1O` (stereo not given), the IC50 in assay [5] is 54.4 µM (active).

Take `Cc1nc2ccc(Br)cn2c1C(=O)N/N=C\c1ccc(C(C)C)cc1`: the AC50 in assay [1] was 2.75 µM (active).

`COc1ccc2[nH]c3c(c2c1)CCN=C3C`: the AC50 on Cytochrome P450 3A4 is 5.01 µM (inconclusive).

For the molecule `COc1cc2nc(=S)n(CCCN3CCOCC3)c(N)c2cc1OC`, the IC50 in assay [5] is 202 µM (active).

Values taken from ChEMBL document CHEMBL1201862, “PubChem BioAssay data set” (2004).
